In patent publication US20220281831A1, “FUSED-GLUTARIMIDE CRBN LIGANDS AND USES THEREOF” (Kymera Therapeutics, Inc., priority 2019, published 2022):

The molecules below were run against His-tagged CRBN-DDB1 complex (Homo sapiens, UniProt Q96SW2) (assay: Time-Resolved Fluorescence Resonance Energy Transfer (TR-FRET / HTRF) CRBN binding assay, displacement of Cy5-labeled thalidomide). Details: His-CRBN-DDB1, Cy5-thalidomide 8 nM, 1 hour room temperature.
Experimental: Time-Resolved Fluorescence Resonance Energy Transfer (TR-FRET) Assay.
Equal volumes of His-tagged CRBN-DDB1 complex (56 nM) was mixed with Eu-cryptate labeled Anti-6HIS-monoclonal antibody (50× dilution from the commercial stock solution, Vender: Cisbio, Cat. #61HI2KLA) in a final buffer containing 20 mM HEPES pH 7.0, 150 mM NaCl, 0.005% Tween-20. […] The mixture were incubated at room temperature for 1 hour. FRET signals were measured on an EnVision plate reader (Perkin Elmer) by exciting at 340 nm and recording emission at both 615 nm as no FRET control and 665 nm as the FRET signals with a 60 microsecond delay. FRET efficiency was calculated as the ratio of fluorescent signals at […]. Quantitative loss of FRET efficiency as a function of compound concentrations was fitted by a four-parameter Logistic Function using GraphPad Prism 7.0 and the IC50 values were reported for each compound.
The compound numbers correspond to the compound numbers in Table 1.

Sequence of His-tagged CRBN-DDB1 complex (Q96SW2 whole entry): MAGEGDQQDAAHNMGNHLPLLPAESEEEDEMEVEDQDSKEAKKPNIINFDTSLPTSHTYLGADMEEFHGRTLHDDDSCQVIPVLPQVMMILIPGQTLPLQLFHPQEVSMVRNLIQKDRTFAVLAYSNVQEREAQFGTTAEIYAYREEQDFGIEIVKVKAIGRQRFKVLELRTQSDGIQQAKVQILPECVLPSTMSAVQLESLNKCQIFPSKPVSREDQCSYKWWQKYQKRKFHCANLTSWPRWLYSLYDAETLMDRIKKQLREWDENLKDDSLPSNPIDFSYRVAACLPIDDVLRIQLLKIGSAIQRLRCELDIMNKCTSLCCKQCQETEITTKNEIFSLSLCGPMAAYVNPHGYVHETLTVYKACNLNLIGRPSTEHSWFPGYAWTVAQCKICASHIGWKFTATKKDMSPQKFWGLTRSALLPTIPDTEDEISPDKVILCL
Sequence of His-tagged CRBN-DDB1 complex (Q16531 whole entry partner): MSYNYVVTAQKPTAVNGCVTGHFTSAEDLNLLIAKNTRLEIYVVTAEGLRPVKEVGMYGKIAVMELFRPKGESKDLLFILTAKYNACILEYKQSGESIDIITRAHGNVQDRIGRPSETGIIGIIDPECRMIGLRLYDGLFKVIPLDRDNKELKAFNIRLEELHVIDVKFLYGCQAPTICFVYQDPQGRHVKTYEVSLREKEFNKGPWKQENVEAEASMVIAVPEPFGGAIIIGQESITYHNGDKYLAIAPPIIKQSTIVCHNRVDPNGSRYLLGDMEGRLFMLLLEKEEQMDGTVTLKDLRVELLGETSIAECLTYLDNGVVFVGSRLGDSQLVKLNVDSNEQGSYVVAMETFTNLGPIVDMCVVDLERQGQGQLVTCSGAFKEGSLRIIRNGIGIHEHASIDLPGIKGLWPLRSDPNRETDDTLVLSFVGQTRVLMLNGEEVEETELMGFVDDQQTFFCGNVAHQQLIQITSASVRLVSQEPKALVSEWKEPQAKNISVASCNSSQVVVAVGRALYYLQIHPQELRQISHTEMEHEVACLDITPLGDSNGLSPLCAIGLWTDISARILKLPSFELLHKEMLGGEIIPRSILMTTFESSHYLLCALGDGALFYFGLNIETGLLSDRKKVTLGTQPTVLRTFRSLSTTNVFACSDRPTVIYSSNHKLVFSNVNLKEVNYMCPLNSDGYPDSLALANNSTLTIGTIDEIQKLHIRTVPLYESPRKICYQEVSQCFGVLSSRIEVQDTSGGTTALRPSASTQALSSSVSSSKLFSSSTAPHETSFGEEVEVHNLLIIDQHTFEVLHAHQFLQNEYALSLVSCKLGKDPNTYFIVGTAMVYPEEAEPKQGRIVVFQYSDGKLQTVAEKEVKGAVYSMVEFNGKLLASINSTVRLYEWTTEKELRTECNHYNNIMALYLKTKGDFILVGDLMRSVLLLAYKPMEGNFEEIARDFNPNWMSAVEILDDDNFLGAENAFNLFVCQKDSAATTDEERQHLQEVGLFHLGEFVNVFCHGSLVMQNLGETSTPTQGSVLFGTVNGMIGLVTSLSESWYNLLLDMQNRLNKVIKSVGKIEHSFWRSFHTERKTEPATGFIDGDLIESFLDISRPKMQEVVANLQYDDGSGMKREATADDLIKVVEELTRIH

Row | IC50 [µM] | Compound
1 | > 100 | O=C1NC(=O)[C@@H]2CN(c3cccc4cnccc34)C[C@H]12 [Compound I-141]
2 | > 100 | O=C1NC(=O)[C@@H]2CN(c3ccc(OC(F)(F)F)cc3)C[C@H]12 [Compound I-142]
3 | > 100 | O=C(O)c1cccc(N2C[C@@H]3C(=O)NC(=O)[C@@H]3C2)c1 [Compound I-143]
4 | > 100 | CS(=O)(=O)c1ccc(N2C[C@@H]3C(=O)NC(=O)[C@@H]3C2)cc1 [Compound I-144]
5 | > 100 | CC(C)(C)OC(=O)NCc1ccc(N2C[C@@H]3C(=O)NC(=O)[C@@H]3C2)cc1 [Compound I-145]
6 | > 100 | O=C1NC(=O)[C@@H]2CN(c3cccc4cccnc34)C[C@H]12 [Compound I-146]
7 | > 100 | O=C1NC(=O)[C@@H]2CN(c3ccc(F)cc3Cl)C[C@H]12 [Compound I-147]
8 | > 100 | N#Cc1ccccc1N1C[C@@H]2C(=O)NC(=O)[C@@H]2C1 [Compound I-148]
9 | > 100 | O=Cc1ccc(N2C[C@@H]3C(=O)NC(=O)[C@@H]3C2)cc1 [Compound I-149]
10 | > 100 | Nc1ccc(N2C[C@@H]3C(=O)NC(=O)[C@@H]3C2)cc1 [Compound I-150]
11 | > 100 | O=C1NC(=O)[C@@H]2CN(c3ccccc3Cl)C[C@H]12 [Compound I-153]
12 | > 100 | NC(=O)c1ccc(N2C[C@@H]3C(=O)NC(=O)[C@@H]3C2)cc1 [Compound I-154]
13 | > 100 | COc1ccc2cc(N3C[C@@H]4C(=O)NC(=O)[C@@H]4C3)ccc2c1 [Compound I-155]
14 | > 100 | O=C1NC(=O)[C@@H]2CN(c3ccc4c(c3)CCO4)C[C@H]12 [Compound I-156]
15 | > 100 | O=C1NC(=O)[C@@H]2CN(c3ccc4c(c3)OCO4)C[C@H]12 [Compound I-157]
16 | > 100 | O=C1NC(=O)[C@@H]2CN(c3ccccc3)C[C@H]12 [Compound I-158]
17 | > 100 | O=C1CC2(CCN(c3ccc(-c4ccccc4)c(F)c3)CC2)CC(=O)N1 [Compound I-160]
18 | > 100 | Cc1cccc(N2C[C@@H]3C(=O)NC(=O)[C@@H]3C2)c1 [Compound I-161]
19 | > 100 | COC(=O)c1ccc(N2CCC3(CC2)CC(=O)NC(=O)C3)cc1 [Compound I-162]
20 | > 100 | O=C1NC(=O)[C@@H]2CN(C3CCC3)C[C@H]12 [Compound I-163]

Row | IC50 [µM] | Compound
21 | > 100 | Cc1cccc(C(=O)N2C[C@@H]3C(=O)NC(=O)[C@@H]3C2)n1 [Compound I-164]
22 | > 100 | COc1cccc(C(=O)N2C[C@@H]3C(=O)NC(=O)[C@@H]3C2)n1 [Compound I-165]
23 | > 100 | O=C1NC(=O)[C@@H]2CN(C(=O)c3cc(C(F)(F)F)ccn3)C[C@H]12 [Compound I-166]
24 | > 100 | O=C1NC(=O)[C@@H]2CN(C(=O)c3ccc4ccccc4n3)C[C@H]12 [Compound I-167]
25 | > 100 | O=C1NC(=O)[C@@H]2CN(C(=O)c3cc4ccccc4cn3)C[C@H]12 [Compound I-168]
26 | > 100 | Nc1cccc(C(=O)N2C[C@@H]3C(=O)NC(=O)[C@@H]3C2)c1 [Compound I-169]
27 | > 100 | NC(=O)c1ccccc1N1C[C@@H]2C(=O)NC(=O)[C@@H]2C1 [Compound I-170]
28 | > 100 | CC(=O)Nc1ccccc1N1C[C@@H]2C(=O)NC(=O)[C@@H]2C1 [Compound I-171]
29 | > 100 | O=CNc1ccccc1N1C[C@@H]2C(=O)NC(=O)[C@@H]2C1 [Compound I-172]
30 | > 100 | Nc1ccc2c(c1)C1(CC(=O)NC1=O)C(=O)N2 (stereo not drawn) [Compound I-173]
31 | > 100 | O=C1CC2(C(=O)N1)C(=O)Nc1ccccc12 (stereo not drawn) [Compound I-174]
32 | > 100 | CNC(=O)c1cccc(N2C[C@@H]3C(=O)NC(=O)[C@@H]3C2)c1 [Compound I-177]
33 | > 100 | CN(C)C(=O)c1cccc(N2C[C@@H]3C(=O)NC(=O)[C@@H]3C2)c1 [Compound I-178]
34 | > 100 | N#Cc1cccc(N2C[C@@H]3C(=O)NC(=O)[C@@H]3C2)c1 [Compound I-179]
35 | > 100 | CS(=O)(=O)c1cccc(N2C[C@@H]3C(=O)NC(=O)[C@@H]3C2)c1 [Compound I-180]
36 | > 100 | COCc1cccc(N2C[C@@H]3C(=O)NC(=O)[C@@H]3C2)c1 [Compound I-181]
37 | > 100 | COc1ccccc1C(=O)N1C[C@@H]2C(=O)NC(=O)[C@@H]2C1 [Compound I-182]
38 | > 100 | CN1C(=O)C2(CC(=O)NC2=O)c2cc(N)ccc21 (stereo not drawn) [Compound I-183]
39 | > 100 | CN1C(=O)C2(CC(=O)NC2=O)c2ccccc21 (stereo not drawn) [Compound I-184]
40 | > 100 | Cn1c(=O)[nH]c2cccc(Br)c2c1=O [Compound I-190]

Row | IC50 [µM] | Compound
41 | > 100 | Cn1c(=O)c2cc(Br)ccc2n(C)c1=O [Compound I-191]
42 | > 100 | Cn1c(=O)c2c(Br)cccc2n(C)c1=O [Compound I-192]
43 | > 100 | O=C1CC2(Nc3ccccc3C2=O)C(=O)N1 (stereo not drawn) [Compound I-195, 1H-spiro[indole-2,3′-pyrrolidine]-2′,3,5′-trione]
44 | > 100 | O=C1CCc2cccc(Oc3ccccc3)c2C(=O)N1 [Compound I-209, 9-Phenoxy-4,5-dihydro-2H-2-benzazepine-1,3-dione]
45 | < 10 | O=C1Cc2cccc(Oc3ccccc3C(F)(F)F)c2C(=O)N1 [Compound I-210, 8-[2-(Trifluoromethyl)phenoxy]-2,4-dihydroisoquinoline-1,3-dione]
46 | < 10 | CC(C)c1ccccc1Oc1cccc2c1C(=O)NC(=O)C2 [Compound I-211, 8-(2-Isopropylphenoxy)-2,4-dihydroisoquinoline-1,3-dione]
47 | 30 to 100 | CC(C)(C)OC(=O)NCC#Cc1ccccc1Oc1cccc2c1C(=O)NC(=O)C2 [Compound I-212]
48 | < 10 | CC(C)(C)OC(=O)NCCCCCC#Cc1ccccc1Oc1cccc2c1C(=O)NC(=O)C2=O [Compound I-242]
49 | 30 to 100 | Cc1ccc(Oc2ccccc2)c2c1CC(=O)NC2=O [Compound I-279]
50 | 30 to 100 | CN(Cc1ccccc1)C(=O)c1cccc2c1C(=O)NC(=O)C2 [Compound I-280]
51 | < 10 | O=C1Cc2cccc(NCc3ccccc3)c2C(=O)N1 [Compound I-281]
52 | > 100 | CC(C1CC1)N1C[C@@H]2C(=O)NC(=O)[C@@H]2C1 (stereo partly drawn) [Compound I-282]
53 | > 100 | O=C1NC(=O)c2cc(NC(=O)N3CCCCC3)ccc21 [Compound I-283]
54 | > 100 | CC(=O)N1C[C@@H]2C(=O)NC(=O)[C@@H]2C1 [Compound I-284]
55 | > 100 | O=C1NC(=O)[C@@H]2CN(C(=O)c3ccc(Cl)cc3)C[C@H]12 [Compound I-286]
56 | > 100 | O=C1NC(=O)[C@@H]2CN(Cc3cccc(O)c3)C[C@H]12 [Compound I-287]
57 | > 100 | O=C1NC(=O)[C@@H]2CN(Cc3c[nH]c4ccccc34)C[C@H]12 [Compound I-288]
58 | > 100 | O=C1NC(=O)[C@@H]2CN(C3Cc4ccccc4C3)C[C@H]12 [Compound I-289]
59 | > 100 | O=C1NC(=O)[C@@H]2CN(C(=O)c3ccc(O)cc3)C[C@H]12 [Compound I-291]
60 | > 100 | COc1ccc(CN2C[C@@H]3C(=O)NC(=O)[C@@H]3C2)cn1 [Compound I-293]
